From US20150018369A1 (priority 2012, published 2015)
pEC50: −log10 of the molar value. Like-named read-outs stand apart in the source and are kept apart here.

What was measured:
[1] = tested on: T98 g, MDA231 and sknmc cells; test: Killing of cell lines lacking CB1/CB2 (sensitivity profile); assay type: cell-based, human; settings: for potencies and efficacies at killing these cells: T98 g, MDA231 and sknmc cells
Description: (§1) Cells were plated media supplemented with 10% serum in 96-well plates (10^4 cells per wellI; 0.1 ml per well). Once they reached ˜70% confluence, they were rinsed with PBS and kept for an additional 24 his in media supplemented with 1% serum, at which time drugs or vehicle (DMSO, 0.1%, prepared in 10 μl serum-free media) were directly added to each well. After 3 days, cell viability was assessed using the Cell Proliferation Reagent WST-1 (Roche, Indianapolis, Ind.). Briefly, WST-1 reagent (10 μl) was added to each well for 3 hrs at 37° C. with 5% CO2 and WST-1 products were read at 450 nm using Packard SpectraCount™.
Based on this evidence, it was determined if WIN55212-2 differentially kills T98 g, MDA231 and […] cells, thus providing an index of AI receptor functionality in these cells. Also tested is Δ^9-THC (classic cannabinoid) and CP55940 (non-classical cannabinoid).

[2] = tested on: protein expressed by NG108-15 cells; settings: cited from earlier work
[3] = tested on: T98 g cells; test: Cell viability assay (WST-1), SAR of AI compounds at inducing cell death; assay type: cell-based, human
Description: as §1
Because the strongest toxic effect of WIN55212-2 (ST-1) was measured in T98 g cells, these cells are used as readout to study the structure activity relationship (SAR) of AI compounds at inducing cell death. Table 2 provides the chemical structure, potency and efficacy of several AI compounds.

[4] = molecular target: CB2 (Homo sapiens, UniProt P34972); test: HA-tagged receptor internalization, CB2; assay type: cell-based; set-up: HA; expressed in transfected cells; settings: FIG. 2b
From the text: FIGS. 2d and 2e illustrate the co-docking of CP55940 and either WIN55212-2 (d) or ST-11 (e) in hCB1 receptors.

[5] = tested on: AI receptors; test: GTPγS binding in HEK293 cell homogenates; assay type: biochemical, human
From the text: When comparing the overall amino acid sequence of GPR124 to that of CB1 and CB2 receptors no significant homology was found. However, when focusing the comparison to the amino acid sequence encoding for the third transmembrane domains of GPR124 and CB2 receptors, 84% homology was found (FIG. 5a). […] Therefore, it is likely that ST-1, ST-11, and other AI compounds interact directly with the third transmembrane domain of GPR124. To determine the signaling mechanism of AI receptors, effect of ST-11 in HEX293 cells, which express GPR124 endogenously and commonly used to study GPCR pharmacology and signaling pathway, was tested.

[6] = tested on: hippocampal slices from CB1-/- mice; settings: blocked by capsazepine; cited from earlier work
[7] = tested on: homogenates from CB1-/- mice cerebellum; settings: insensitive to SR144528; cited from earlier work
[8] = T98 g cells, cell death, viability after 3 days
[9] = Homo sapiens, T98G, 72 h, T98 g cells, cell death, viability after 3 days, read-out: EC50

Sequence of CB2 (P34972 whole entry): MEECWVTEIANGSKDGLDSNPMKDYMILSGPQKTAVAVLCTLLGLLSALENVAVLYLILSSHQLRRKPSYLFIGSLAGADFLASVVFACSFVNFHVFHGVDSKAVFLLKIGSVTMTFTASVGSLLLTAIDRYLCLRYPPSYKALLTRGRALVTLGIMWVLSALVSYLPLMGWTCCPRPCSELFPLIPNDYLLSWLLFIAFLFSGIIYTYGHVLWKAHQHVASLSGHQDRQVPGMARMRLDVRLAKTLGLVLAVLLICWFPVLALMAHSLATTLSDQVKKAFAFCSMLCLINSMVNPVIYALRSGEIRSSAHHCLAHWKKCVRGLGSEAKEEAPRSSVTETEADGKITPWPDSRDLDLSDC

CCCCCCC(C)(C)c1ccc([C@@H]2C[C@H](O)CC[C@H]2CCCO)c(O)c1 [CP55940, CP55,940]
potencies and efficacies at killing these cells [1]: inconsistent potencies and efficacies | competition for WIN-2 binding [2]: did not compete

Cc1c(C(=O)c2cccc3ccccc23)c2ccccc2n1C [ST-12]
pEC50 ([3]; Homo sapiens, T98G, 72 h): 5.51

CCCn1c2ccccc2c2cc(C(=O)c3ccc(C)c4ccccc34)ccc21 [ST-58, (9-propyl-carbazol-3-yl)(4-methyl-naphthyl)methanone]
EC50 (μM) [3, 8]: inactive

CCn1c(C)c(C(=O)c2ccc(OC)cc2)c2ccccc21 [ST-47]
pEC50 ([3]; Homo sapiens, T98G, 72 h): ~4.70

CCOC(=O)N1CCc2c(c3cc(C(=O)c4ccc(C)c5ccccc45)ccc3n2CC)C1
pEC50 ([3]; Homo sapiens, T98G, 72 h): 5.22

CCCCCc1cc(O)c2c(c1)OC(C)(C)[C@@H]1CCC(C)=C[C@@H]21 [THC, Δ^9-THC]
potencies and efficacies at killing these cells [1]: inconsistent potencies and efficacies

CCCn1cc(C(=O)c2ccc(C)c3ccccc23)c2ccccc21 [ST-14]
EC50 (μM) [3, 8]: inactive

CCCCCn1c2ccccc2c2cc(C(=O)N3CCCCC3)ccc21 [ST-32]
pEC50 ([3]; Homo sapiens, T98G, 72 h): 5.21

CCn1c2ccccc2c2cc(C(=O)c3ccc(C)cc3)ccc21 [ST-63, (9-ethyl-carbazol-3-yl)(p-methylphenyl)methanone]
pEC50 [3, 9]: 6.15

COc1ccc(C(=O)c2c(C)n(CCN3CCOCC3)c3cc(C)ccc23)cc1 [ST-19]
pEC50 ([3]; Homo sapiens, T98G, 72 h): 5.13

COc1ccc2c(c1)c(C(=O)N1CCCC(c3nnc4ccccn34)C1)c(C)n2C (centres unmarked) [ST-41]
EC50 (μM) [3, 8]: inactive

Cc1ccc(C(=O)c2c(C)n(CCN3CCOCC3)c3ccc(Cl)cc23)c2ccccc12 [ST-22]
pEC50 ([3]; Homo sapiens, T98G, 72 h): 5.27

COc1ccc2c(c1)c(C(=O)c1ccc(C)c3ccccc13)c(C)n2CCN1CCOCC1 [ST-21]
pEC50 ([3]; Homo sapiens, T98G, 72 h): 4.54

CCN1C(=O)/C(=N\NC(=O)c2cccc3ccccc23)c2ccccc21 [ST-37]
pEC50 ([3]; Homo sapiens, T98G, 72 h): 5.25

CCCCCn1cc(C(=O)c2cccc3ccccc23)cc1-c1cc(C)cc(O)c1 [ST-16]
EC50 (μM) [3, 8]: inactive

COc1ccc2c3cc(C(=O)N4CCCCC4)ccc3n(CC3CCCCC3)c2c1 [ST-36]
pEC50 ([3]; Homo sapiens, T98G, 72 h): 5.43

CCn1c2c(c3ccccc31)CN(S(=O)(=O)c1ccc(Cl)c3nonc13)CC2 [ST-59]
EC50 (μM) [3, 8]: inactive

COCCn1c(C)c(C(=O)N2CCC3(CC2)NC(=O)N(C)C3=O)c2ccccc21 [ST-8]
pEC50 ([3]; Homo sapiens, T98G, 72 h): 4.54

CCn1c2ccccc2c2cc(C(=O)N3CCN(C)CC3)ccc21 [ST-62, (9-ethyl-carbazol-3-yl)(N-methylpiperazine)methanone]
EC50 (μM) [3, 8]: inactive

5-ethyl-7-methoxy-2-[(4-methylnaphthalen-1-yl)carbonyl]-1H,2H,3H,4H,5H-pyrido[4,3-b]indole [ST-33]
pEC50 ([3]; T98 g cells, cell death, viability after 3 days, read-out: EC50): 5.85

Cc1c(C(=O)Cn2cnc3ccccc3c2=O)c2ccccc2n1C [ST-5]
EC50 (μM) [3, 8]: inactive

CCn1c2ccccc2c2cc(C(=O)c3ccc(C)c4ccccc34)ccc21 [ST-34, (9-ethyl-9H-carbazol-3-yl)(4-methylnaphthalen-1-yl)methanone]
pEC50 ([3]; Homo sapiens, T98G, 72 h): 7.11

Cc1c(CNN2CCOCC2)nn(C)c1C [ST-49]
EC50 (μM) [3, 8]: inactive

Cc1ccc(C(=O)c2c(C)n(CC(F)(F)F)c3ccccc23)c2ccccc12 [ST-29]
cross-activation of human CB2 receptors (receptor internalization) [4]: engage CB2 receptors | GTPγS binding [5]: increase GTP[…]S binding | pEC50 ([3]; Homo sapiens, T98G, 72 h): 6.00

Cc1ccc(C(=O)n2c3ccccc3c3ccccc32)c2ccccc12 [ST-64]
pEC50 [3, 9]: 5.73

CCn1c(C)c(C(=O)c2cccc3ccccc23)c2ccccc21 [ST-13]
pEC50 ([3]; Homo sapiens, T98G, 72 h): 5.10

Cc1c(C(=O)c2cccc3ccccc23)c2cccc3c2n1[C@@H](CN1CCOCC1)CO3 [ST-1, WIN55212-2]
pEC50 ([1]; Homo sapiens, range over the three cell lines (FIG. 1), read-out: potency at killing T98 g, MDA231 and sknmc cells): 5.54 to 5.82 | toxic efficacy ([1]; rank order of cell lines): T98 g>MDA>sknmc | excitatory transmission [6]: inhibit excitatory transmission | binding affinity [2]: nanomolar affinity | [35S]-GTPγS binding [7]: increase [^35S]-GTPγS binding | pEC50 ([3]; Homo sapiens, T98G, 72 h): 5.68
